The results in this text go back to the NIST ThermoML archive (doi:10.1021/je0201166).

Numbers after ± are expanded uncertainties.

For this series the following is noted: Liquid; for mass density: 298.15 K, 101.33 kPa.

With `O` [water], the mass density is on record as 997.2 ± 5 kg/m3 and the Normal boiling temperature turned out to be 99.98 ± 0.1 °C.
The matching figures for `C1COCO1` [1,3-dioxolane]: 1058.6 ± 5 kg/m3 and 75.42 ± 0.1 °C.
As to `CO` [methanol], the mass density came out at 786.7 ± 5 kg/m3 and the Normal boiling temperature amounted to 64.54 ± 0.1 °C.

The term mass density denotes the mass of a sample divided by its volume.
